Laboratory results as given in PubChem BioAssay AID2060494 (Molecular Pharmacology Branch, DTP, NCI, 2025).

Test system: 435261-313-R-J1-PDC complex spheroid viability
Experiment: Anticancer human tumor 435261-313-R-J1-PDC patient-derived colon adenocarcinoma cell line growth inhibition [GQUAD]
Conditions: for IC50: curve of first compound; for viability, T/C: stronger effect = lower value
Method in brief: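 Tumor cells were grown as complex spheroids with HUVEC endothelial cells and mesenchymal stem cells as stroma. G-quadruplex stabilizers were combined with targeted agents over half-log dilutions from near the clinical Cmax, or from 10 microM.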

[1] = second compound 0.0316 µM, first compound 0.000999 µM
[2] = second compound 0.0316 µM, first compound 0.00316 µM
[3] = second compound 0.0316 µM, first compound 0.00999 µM
[4] = second compound 0.0316 µM, first compound 0.0316 µM
[5] = second compound 0.0316 µM, first compound 0.0999 µM
[6] = second compound 0.0316 µM, first compound 0.316 µM
[7] = second compound 0.1 µM, first compound 0.000999 µM
[8] = second compound 0.1 µM, first compound 0.00316 µM
[9] = second compound 0.1 µM, first compound 0.00999 µM
[10] = second compound 0.1 µM, first compound 0.0316 µM
[11] = second compound 0.1 µM, first compound 0.0999 µM
[12] = second compound 0.1 µM, first compound 0.316 µM
[13] = second compound 0.316 µM, first compound 0.000999 µM
[14] = second compound 0.316 µM, first compound 0.00316 µM
[15] = second compound 0.316 µM, first compound 0.00999 µM
[16] = second compound 0.316 µM, first compound 0.0316 µM
[17] = second compound 0.316 µM, first compound 0.0999 µM
[18] = second compound 0.316 µM, first compound 0.316 µM
[19] = second compound 1 µM, first compound 0.000999 µM
[20] = second compound 1 µM, first compound 0.00316 µM
[21] = second compound 1 µM, first compound 0.00999 µM
[22] = second compound 1 µM, first compound 0.0316 µM
[23] = second compound 1 µM, first compound 0.0999 µM
[24] = second compound 1 µM, first compound 0.316 µM
[25] = second compound 3.16 µM, first compound 0.000999 µM
[26] = second compound 3.16 µM, first compound 0.00316 µM
[27] = second compound 3.16 µM, first compound 0.00999 µM
[28] = second compound 3.16 µM, first compound 0.0316 µM
[29] = second compound 3.16 µM, first compound 0.0999 µM
[30] = second compound 3.16 µM, first compound 0.316 µM
[31] = second compound 10 µM, first compound 0.000999 µM
[32] = second compound 10 µM, first compound 0.00316 µM
[33] = second compound 10 µM, first compound 0.00999 µM
[34] = second compound 10 µM, first compound 0.0316 µM
[35] = second compound 10 µM, first compound 0.0999 µM
[36] = second compound 10 µM, first compound 0.316 µM
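Further: spheroids exposed to the agents for seven days before readout.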
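Wherever viability, T/C is given: percent of vehicle control viability with DMSO wells as 100%.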

`Cn1ncnc1[C@H]1c2n[nH]c(=O)c3cc(F)cc(c23)N[C@@H]1c1ccc(F)cc1` + Cc1[nH]c2ccc(F)cc2c1-c1nc2c3cccnc3c3ncccc3c2[nH]1 was tested, and the IC50 (second compound 0.0316 µM) was > 316 nM, the IC50 (second compound 0.1 µM) was > 316 nM and the IC50 (second compound 0.316 µM) was > 316 nM. For the same compound, the IC50 (second compound 1 µM) was > 316 nM, the IC50 (second compound 3.16 µM) was < 0.999 nM and the IC50 (second compound 10 µM) was < 0.999 nM. The viability, T/C [1] was 125%, the viability, T/C [2] was 95.4% and the viability, T/C [3] was 87.6%. It also gave a viability, T/C [4] of 77.8%, a viability, T/C [5] of 93.9% and a viability, T/C [6] of 87%. For the same compound, the viability, T/C [7] was 79.2%, the viability, T/C [8] was 83.9% and the viability, T/C [9] was 114%. For the same compound, the viability, T/C [10] was 101%, the viability, T/C [11] was 99.5% and the viability, T/C [12] was 80.9%. For the same compound, the viability, T/C [13] was 86.9%, the viability, T/C [14] was 110% and the viability, T/C [15] was 92.1%. For the same compound, the viability, T/C [16] was 71.7%, the viability, T/C [17] was 82.9% and the viability, T/C [18] was 68.5%. The viability, T/C [19] was 60.2%, the viability, T/C [20] was 67.9% and the viability, T/C [21] was 94.8%. It also gave a viability, T/C [22] of 72.2%, a viability, T/C [23] of 60.3% and a viability, T/C [24] of 56.2%. The viability, T/C [25] was 43.7%, the viability, T/C [26] was 37.5% and the viability, T/C [27] was 25.6%. It also gave a viability, T/C [28] of 38.6%, a viability, T/C [29] of 31.8% and a viability, T/C [30] of 41.7%. For the same compound, the viability, T/C [31] was 18.4%, the viability, T/C [32] was 32.4% and the viability, T/C [33] was 31.2%. The viability, T/C [34] was 22.7%, the viability, T/C [35] was 22.6% and the viability, T/C [36] was 22.1%.

With `Cn1ncnc1[C@H]1c2n[nH]c(=O)c3cc(F)cc(c23)N[C@@H]1c1ccc(F)cc1` + CN(C)c1ccc(Nc2c3ccc(NC(=O)CCN4CCCC4)cc3nc3cc(NC(=O)CCN4CCCC4)ccc23)cc1 the IC50 (second compound 0.0316 µM) was > 316 nM, the IC50 (second compound 0.1 µM) was > 316 nM and the IC50 (second compound 0.316 µM) was > 316 nM. For the same compound, the IC50 (second compound 1 µM) was > 316 nM, the IC50 (second compound 3.16 µM) was > 316 nM and the IC50 (second compound 10 µM) was < 0.999 nM. The viability, T/C [1] was 86.2%, the viability, T/C [2] was 92.3% and the viability, T/C [3] was 85.7%. It also gave a viability, T/C [4] of 78.1%, a viability, T/C [5] of 74.2% and a viability, T/C [6] of 74.6%. For the same compound, the viability, T/C [7] was 97.5%, the viability, T/C [8] was 77.7% and the viability, T/C [9] was 90.6%. It also gave a viability, T/C [10] of 92.1%, a viability, T/C [11] of 88.2% and a viability, T/C [12] of 76.7%. It also gave a viability, T/C [13] of 97.5%, a viability, T/C [14] of 73.2% and a viability, T/C [15] of 84.1%. For the same compound, the viability, T/C [16] was 79.1%, the viability, T/C [17] was 70.7% and the viability, T/C [18] was 62.2%. The viability, T/C [19] was 96.7%, the viability, T/C [20] was 92.1% and the viability, T/C [21] was 84.5%. For the same compound, the viability, T/C [22] was 70.7%, the viability, T/C [23] was 83.2% and the viability, T/C [24] was 68.9%. The viability, T/C [25] was 70.4%, the viability, T/C [26] was 77.2% and the viability, T/C [27] was 56.1%. It also gave a viability, T/C [28] of 62.4%, a viability, T/C [29] of 78.9% and a viability, T/C [30] of 48.2%. The viability, T/C [31] was 31.3%, the viability, T/C [32] was 35.4% and the viability, T/C [33] was 44.2%. It also gave a viability, T/C [34] of 26.7%, a viability, T/C [35] of 27.4% and a viability, T/C [36] of 35.3%.

`COc1cccc2c1C(=O)c1c(O)c3c(c(O)c1C2=O)CC(O)(C(=O)CO)CC3OC1CC(N)C(O)C(C)O1` (stereo unspecified) + CN(C)c1ccc(Nc2c3ccc(NC(=O)CCN4CCCC4)cc3nc3cc(NC(=O)CCN4CCCC4)ccc23)cc1 gave an IC50 (second compound 0.0316 µM) of 491 nM, an IC50 (second compound 0.1 µM) of 644 nM and an IC50 (second compound 0.316 µM) of 582 nM. The IC50 (second compound 1 µM) was 439 nM, the IC50 (second compound 3.16 µM) was 152 nM and the IC50 (second compound 10 µM) was < 31.6 nM. It also gave a viability, T/C [4] of 83.2%, a viability, T/C (second compound 0.0316 µM, first compound 0.1 µM) of 71.2% and a viability, T/C [6] of 65.4%. It also gave a viability, T/C (second compound 0.0316 µM, first compound 1 µM) of 26.9%, a viability, T/C (second compound 0.0316 µM, first compound 3.16 µM) of 2.29% and a viability, T/C (second compound 0.0316 µM, first compound 10 µM) of 5.25%. The viability, T/C [10] was 73.4%, the viability, T/C (second compound 0.1 µM, first compound 0.1 µM) was 87% and the viability, T/C [12] was 78.7%. The viability, T/C (second compound 0.1 µM, first compound 1 µM) was 32.1%, the viability, T/C (second compound 0.1 µM, first compound 3.16 µM) was 3.52% and the viability, T/C (second compound 0.1 µM, first compound 10 µM) was 4.61%. The viability, T/C [16] was 76.3%, the viability, T/C (second compound 0.316 µM, first compound 0.1 µM) was 79.1% and the viability, T/C [18] was 70.5%. It also gave a viability, T/C (second compound 0.316 µM, first compound 1 µM) of 31.5%, a viability, T/C (second compound 0.316 µM, first compound 3.16 µM) of 2.47% and a viability, T/C (second compound 0.316 µM, first compound 10 µM) of 2.91%. The viability, T/C [22] was 83%, the viability, T/C (second compound 1 µM, first compound 0.1 µM) was 69.8% and the viability, T/C [24] was 58.7%. It also gave a viability, T/C (second compound 1 µM, first compound 1 µM) of 31.9%, a viability, T/C (second compound 1 µM, first compound 3.16 µM) of 1.79% and a viability, T/C (second compound 1 µM, first compound 10 µM) of 3.08%. For the same compound, the viability, T/C [28] was 46.8%, the viability, T/C (second compound 3.16 µM, first compound 0.1 µM) was 62.5% and the viability, T/C [30] was 42%. The viability, T/C (second compound 3.16 µM, first compound 1 µM) was 16.4%, the viability, T/C (second compound 3.16 µM, first compound 3.16 µM) was 1.33% and the viability, T/C (second compound 3.16 µM, first compound 10 µM) was 3.49%. For the same compound, the viability, T/C [34] was 37.7%, the viability, T/C (second compound 10 µM, first compound 0.1 µM) was 28% and the viability, T/C [36] was 17.7%. The viability, T/C (second compound 10 µM, first compound 1 µM) was 12%, the viability, T/C (second compound 10 µM, first compound 3.16 µM) was 2.28% and the viability, T/C (second compound 10 µM, first compound 10 µM) was 3.53%.
